# The source made the active and inactive calls.
# Experiments:
# Estrogen receptor = biological target: T1, Estrogen receptor (Homo sapiens, UniProt P03372);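 also: potency for inhibiting coactivator peptide recruitment to the receptor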
# T1 sequence (P03372 whole entry): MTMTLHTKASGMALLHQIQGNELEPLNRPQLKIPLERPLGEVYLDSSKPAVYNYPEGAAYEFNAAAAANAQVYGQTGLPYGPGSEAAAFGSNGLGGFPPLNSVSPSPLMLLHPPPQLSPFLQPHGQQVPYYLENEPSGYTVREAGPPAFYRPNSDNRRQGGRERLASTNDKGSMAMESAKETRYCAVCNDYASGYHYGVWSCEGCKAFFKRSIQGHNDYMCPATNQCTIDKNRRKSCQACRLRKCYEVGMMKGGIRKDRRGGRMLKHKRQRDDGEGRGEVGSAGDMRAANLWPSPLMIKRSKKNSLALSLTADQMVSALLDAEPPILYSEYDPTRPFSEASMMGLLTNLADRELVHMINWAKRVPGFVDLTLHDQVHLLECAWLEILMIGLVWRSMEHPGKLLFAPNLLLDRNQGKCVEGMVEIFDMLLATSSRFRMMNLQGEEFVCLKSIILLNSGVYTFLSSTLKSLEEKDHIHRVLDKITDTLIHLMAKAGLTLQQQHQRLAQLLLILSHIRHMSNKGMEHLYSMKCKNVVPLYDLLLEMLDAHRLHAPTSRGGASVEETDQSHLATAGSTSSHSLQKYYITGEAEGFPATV
# HeLa = experiment: HeLa cell cytotoxicity, dose response, cytotoxicity control for MITF activator project, CellTiter-Glo luminescence, cherry-pick samples (AID 540259); type: functional, cell-based; settings: Homo sapiens
# HEK293 [1] = experiment: NOD1 signaling inhibitors, primary screen, cell-based, luminescence, uHTS (AID 1578); type: functional; settings: Homo sapiens
# HEK293 [2] = experiment: cells; type: functional, cell-based; settings: Homo sapiens
# HEK293 [3] = experiment: cells; type: functional, cell-based; settings: Homo sapiens; remark: listed apart in the source
# [4] = biological target: Nucleotide-binding oligomerization domain-containing protein 2 (Homo sapiens, UniProt Q9HC29); experiment: NOD2 signaling inhibitors, cell-based, luminescence, uHTS, HEK293 (AID 1566); type: functional
# Nucleotide-binding oligomerization domain-containing protein 2, sequence (Q9HC29 whole entry, the tested form may be a part): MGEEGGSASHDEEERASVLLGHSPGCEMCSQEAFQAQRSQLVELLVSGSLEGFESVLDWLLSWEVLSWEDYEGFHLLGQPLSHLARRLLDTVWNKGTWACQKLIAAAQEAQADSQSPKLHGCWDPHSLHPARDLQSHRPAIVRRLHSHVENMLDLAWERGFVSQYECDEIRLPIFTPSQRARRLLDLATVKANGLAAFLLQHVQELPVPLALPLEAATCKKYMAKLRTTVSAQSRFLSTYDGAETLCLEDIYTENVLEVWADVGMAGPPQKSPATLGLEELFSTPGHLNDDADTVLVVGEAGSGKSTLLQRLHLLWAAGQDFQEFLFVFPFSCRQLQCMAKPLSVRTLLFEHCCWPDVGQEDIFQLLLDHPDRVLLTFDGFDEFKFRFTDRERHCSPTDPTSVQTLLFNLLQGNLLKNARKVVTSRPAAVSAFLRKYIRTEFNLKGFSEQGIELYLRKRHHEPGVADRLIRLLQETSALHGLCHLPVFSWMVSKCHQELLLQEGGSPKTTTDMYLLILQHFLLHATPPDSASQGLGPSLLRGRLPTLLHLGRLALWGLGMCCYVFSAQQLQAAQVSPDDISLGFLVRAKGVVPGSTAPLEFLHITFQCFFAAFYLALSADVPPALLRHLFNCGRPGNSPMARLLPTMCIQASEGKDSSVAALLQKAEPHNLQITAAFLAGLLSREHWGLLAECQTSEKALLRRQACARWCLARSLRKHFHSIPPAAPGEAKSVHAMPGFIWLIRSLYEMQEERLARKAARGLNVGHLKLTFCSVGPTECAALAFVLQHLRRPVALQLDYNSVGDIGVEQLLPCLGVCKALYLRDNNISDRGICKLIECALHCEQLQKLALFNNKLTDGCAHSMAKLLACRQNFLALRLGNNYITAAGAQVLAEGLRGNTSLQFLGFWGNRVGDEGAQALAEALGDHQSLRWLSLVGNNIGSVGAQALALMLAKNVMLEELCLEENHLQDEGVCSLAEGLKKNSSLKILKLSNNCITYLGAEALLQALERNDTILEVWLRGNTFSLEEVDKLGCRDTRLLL
# HEK293 [5] = experiment: NOD2 signaling inhibitors in MDP-stimulated cells, cell-based, uHTS, luminescence (AID 2001); type: functional; settings: Homo sapiens
# HEK293 [6] = experiment: cells; type: functional, cell-based; settings: Homo sapiens; remark: listed apart in the source
# [7] = inhibitors of intracellular T. cruzi replication, confirmation, NIH3T3 host cells, beta-gal luminescence (AID 2044); type: functional, cell-based;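 also: intracellular parasites grown in NIH/3T3 mouse fibroblasts as host cells; luminescent beta-galactosidase reporter signal from transgenic T. cruzi replicating inside host cells; inhibitors lower the luminescence signal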
# [8] = cytotoxicity toward NIH3T3 fibroblasts, dose response, counter-screen, cell-based, ATP luminescence, mouse fibroblasts (AID 2010); type: functional;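 also: cells exposed to compound for about 90 hours before reading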
# Cytochrome P450 2C9 = Cytochrome P450 2C9 (Homo sapiens, UniProt P11712)
# Cytochrome P450 2C9, sequence (P11712 whole entry): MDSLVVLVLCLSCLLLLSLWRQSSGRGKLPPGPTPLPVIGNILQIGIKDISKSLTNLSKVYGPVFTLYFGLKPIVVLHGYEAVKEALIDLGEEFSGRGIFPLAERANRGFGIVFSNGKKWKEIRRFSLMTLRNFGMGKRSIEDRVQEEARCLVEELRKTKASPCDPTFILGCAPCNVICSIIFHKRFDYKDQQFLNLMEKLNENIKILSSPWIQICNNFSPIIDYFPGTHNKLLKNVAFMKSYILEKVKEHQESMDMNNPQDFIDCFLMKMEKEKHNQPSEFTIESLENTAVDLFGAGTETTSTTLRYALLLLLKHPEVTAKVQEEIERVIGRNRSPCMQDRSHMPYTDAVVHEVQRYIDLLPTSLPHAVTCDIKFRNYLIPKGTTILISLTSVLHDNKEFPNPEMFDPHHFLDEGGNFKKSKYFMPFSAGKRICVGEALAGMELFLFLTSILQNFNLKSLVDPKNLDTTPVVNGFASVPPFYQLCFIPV
# Nonstructural protein 1 = Nonstructural protein 1 (Influenza A virus, UniProt Q194T2); type: functional, Influenza A virus (A/California/07/2009(H1N1))
# Nonstructural protein 1, sequence (Q194T2 whole entry): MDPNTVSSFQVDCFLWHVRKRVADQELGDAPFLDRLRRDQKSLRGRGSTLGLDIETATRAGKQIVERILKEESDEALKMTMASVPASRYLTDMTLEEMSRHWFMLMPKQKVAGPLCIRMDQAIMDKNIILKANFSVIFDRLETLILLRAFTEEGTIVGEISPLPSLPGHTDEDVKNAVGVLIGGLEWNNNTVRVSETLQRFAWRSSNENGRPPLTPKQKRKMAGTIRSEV
# INS1 = experiment: beta cell apoptosis inhibitors, cytokine rescue, dose response, luminescence, retest (AID 449756); type: functional, cell-based; settings: Rattus norvegicus, INS1;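 also: cell death triggered by IL-1 beta plus TNF-alpha plus IFN-gamma mixture; protective hits raise ATP signal compared with cytokine alone wells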
# Melanocortin receptor 4 = Melanocortin receptor 4 (Homo sapiens, UniProt P32245); experiment: MC4R antagonist potency on cAMP, dose response, cell-based, TR-FRET, biased antagonists (AID 602298); type: functional;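 also: antagonist potency against agonist-stimulated cAMP production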
# Melanocortin receptor 4, sequence (P32245 whole entry): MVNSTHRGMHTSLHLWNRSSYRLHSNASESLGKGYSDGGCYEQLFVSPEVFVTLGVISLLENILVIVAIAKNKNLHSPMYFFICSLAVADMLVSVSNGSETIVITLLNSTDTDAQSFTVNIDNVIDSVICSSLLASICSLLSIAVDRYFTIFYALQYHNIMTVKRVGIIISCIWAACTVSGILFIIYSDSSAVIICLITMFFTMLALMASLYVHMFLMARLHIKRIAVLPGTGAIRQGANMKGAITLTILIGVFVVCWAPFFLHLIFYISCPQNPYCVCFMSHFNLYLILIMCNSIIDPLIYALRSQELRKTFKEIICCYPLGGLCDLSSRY
# [9] = nonselective inhibitors of cellular cAMP signaling, dose response, counter-screen for MC4R biased antagonist project, cell-based, TR-FRET cAMP detection (AID 602305); type: functional;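 also: U2OS cells stimulated with forskolin near its EC80 as the cAMP inducer; potency is for inhibition of forskolin-stimulated cAMP signaling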
# [10] = biological target: T2, Heat shock factor protein 1 (Mus musculus, UniProt P38532); experiment: inhibition of MG132-induced HSE-luciferase signal, confirmation, cell-based, NIH3T3, luminescence, dose retest (AID 2382); type: functional;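 also: NIH3T3 fibroblasts with HSF1-driven luciferase reporter stressed by proteasome inhibitor MG132; luminescence from HSF1-driven luciferase expression after 8 hours of MG132 stress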
# T2 sequence (P38532 whole entry): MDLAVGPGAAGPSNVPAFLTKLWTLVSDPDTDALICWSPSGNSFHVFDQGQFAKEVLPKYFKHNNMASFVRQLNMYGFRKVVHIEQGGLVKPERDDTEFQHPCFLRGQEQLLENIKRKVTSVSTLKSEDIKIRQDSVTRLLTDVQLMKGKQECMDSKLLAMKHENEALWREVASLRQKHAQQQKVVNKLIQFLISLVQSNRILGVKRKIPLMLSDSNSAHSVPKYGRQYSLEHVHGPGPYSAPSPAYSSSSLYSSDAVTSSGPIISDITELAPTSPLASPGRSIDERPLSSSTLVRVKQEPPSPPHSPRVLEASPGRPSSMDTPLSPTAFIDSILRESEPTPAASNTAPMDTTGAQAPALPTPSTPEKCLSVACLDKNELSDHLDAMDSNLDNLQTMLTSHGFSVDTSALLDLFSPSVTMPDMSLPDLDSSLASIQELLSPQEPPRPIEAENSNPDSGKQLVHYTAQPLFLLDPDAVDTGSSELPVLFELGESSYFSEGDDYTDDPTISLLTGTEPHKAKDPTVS
# Cytochrome P450 3A4 = Cytochrome P450 3A4 (Homo sapiens, UniProt P08684); settings: Potency;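 also: confirmatory qHTS run detecting inhibitors and substrates of CYP3A4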
# Cytochrome P450 3A4, sequence (P08684 whole entry): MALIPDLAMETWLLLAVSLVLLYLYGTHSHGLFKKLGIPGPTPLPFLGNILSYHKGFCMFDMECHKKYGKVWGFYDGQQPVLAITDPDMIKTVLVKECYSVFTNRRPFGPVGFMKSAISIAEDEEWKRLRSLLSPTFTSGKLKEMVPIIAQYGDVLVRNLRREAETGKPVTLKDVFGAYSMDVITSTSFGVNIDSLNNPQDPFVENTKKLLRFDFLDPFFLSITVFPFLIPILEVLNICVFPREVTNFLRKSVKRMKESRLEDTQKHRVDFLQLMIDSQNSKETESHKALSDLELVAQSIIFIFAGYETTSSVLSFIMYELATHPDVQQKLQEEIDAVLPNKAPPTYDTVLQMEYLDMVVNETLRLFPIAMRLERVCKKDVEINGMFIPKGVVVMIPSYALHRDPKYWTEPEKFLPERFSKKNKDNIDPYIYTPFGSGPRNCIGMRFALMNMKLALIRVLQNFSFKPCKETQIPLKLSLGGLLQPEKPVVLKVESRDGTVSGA
structure (smiles),measurement,setting,value
COc1ccc2[nH]c3nc(SCc4nnc(-c5ccc(C)cc5)o4)nnc3c2c1,IC50,Estrogen receptor,6.84 µM (active)
O=C(NCCc1cccs1)c1ccc(Cl)c(Cl)c1,AC50,HeLa,44.2 µM (active)
COc1ccccc1NC(=O)CSc1nc2sc(C)c(C)c2c(=O)n1C,EC50,HEK293 [1],> 20 µM (inactive)
same,IC50,HEK293 [2],12.7 µM (active)
same,IC50,HEK293 [3],> 20 µM (inactive)
same,EC50,[4],> 20 µM (inactive)
same,IC50,HEK293 [5],8.8 µM (active)
same,IC50,HEK293 [6],> 20 µM (inactive)
O=C(NCc1cn(-c2ccccc2)nc1-c1ccccc1)c1cc([N+](=O)[O-])cc([N+](=O)[O-])c1,EC50,[7],< 0.1 µM (active)
same,EC50,[8],> 60 µM (not active)
same,AC50,Cytochrome P450 2C9,2.82 µM (inconclusive)
same,EC50,cells,0.139 µM (active)
COc1ccc(C(=O)CSc2nnc(C3CCCCC3)n2N)c(OC)c1,IC50,Estrogen receptor,> 50 µM (not active)
Fc1ccc(F)c(CNc2ncnc3cc(Cl)ccc23)c1,EC50,HEK293 [1],9.76 µM (active)
same,IC50,HEK293 [2],6.42 µM (active)
same,IC50,HEK293 [3],11.9 µM (active)
same,EC50,[4],> 20 µM (inactive)
same,IC50,HEK293 [5],12.7 µM (inactive)
same,IC50,HEK293 [6],> 20 µM (inactive)
Cc1cccn2c(=O)c(C=C(C#N)C#N)c(N3CCN(c4ccccc4)CC3)nc12,IC50,Nonstructural protein 1,> 100 µM (active)
CCCCCCOc1ccc(CN2CCN(C)CC2)cc1,EC50,[7],< 0.1 µM (active)
same,EC50,[8],4.32 µM (active)
same,AC50,INS1,4.04 µM (active)
same,EC50,cells,0.076 µM (active)
Cc1cc(OCC(=O)Nc2ccncc2)cc(C)c1Br,EC50,HEK293 [1],3.21 µM (active)
same,IC50,HEK293 [2],5.24 µM (active)
same,IC50,HEK293 [3],13.3 µM (active)
same,EC50,[4],8.76 µM (active)
same,IC50,HEK293 [5],6.86 µM (active)
same,IC50,HEK293 [6],> 20 µM (inactive)
COc1ccc(OC)c(NC(=O)CCN2C(=O)c3cccc([N+](=O)[O-])c3C2=O)c1,IC50,Melanocortin receptor 4,> 64.6 µM (inactive)
same,IC50,[9],> 64.6 µM (inactive)
Cc1ccc(C(=O)Nc2ncccc2S(=O)(=O)c2ccccc2)cc1,AC50,HeLa,> 350 µM (inactive)
COc1cccc(C(=O)Nc2sc(C(C)C)cc2C(N)=O)c1OC,EC50,[10],> 195 µM (not active)
same,IC50,Melanocortin receptor 4,> 64.6 µM (inactive)
same,IC50,[9],> 64.6 µM (inactive)
O=S(=O)(Nc1nc2ccccc2nc1Nc1ccc2c(c1)OCO2)c1ccc(F)cc1,EC50,HEK293 [1],2.81 µM (active)
same,IC50,HEK293 [2],8.92 µM (active)
same,IC50,HEK293 [3],> 20 µM (inactive)
same,EC50,[4],11.6 µM (active)
same,IC50,HEK293 [5],6.29 µM (active)
same,IC50,HEK293 [6],> 20 µM (inactive)
COC(=O)N1[C@H](C)C=C[C@]1(Cc1ccccc1)C(=O)NCc1ccc(C)o1,AC50,Cytochrome P450 3A4,7.94 µM (inconclusive)
Cc1ccc(-n2cccc2/C=C2\C(=N)N3N=C(C(C)C)SC3=NC2=O)cc1,IC50,Melanocortin receptor 4,> 64.6 µM (inactive)
same,IC50,[9],> 64.6 µM (inactive)

# Source: ChEMBL document CHEMBL1201862, “PubChem BioAssay data set” (2004)
